Measurements from PubChem BioAssay (NCI).
“And” between values parts separate entries of the source, which are not always exact repeats. Equal values may be shown once.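 Protocol summary: plate cells (96-well), add compound at 5 concentrations, incubate 48 h, interpolate endpoints linearly. Abbreviation: GI50, concentration required for 50% inhibition of growth. TGI marks complete inhibition of growth.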 Where a SMILES comes first, the peptide text is derived from it. [ ]: non-standard residue; d: D form. Phe(F5) = N[CH](Cc1c(F)c(F)c(F)c(F)c1F)C(=O)O

Tests used:
Assay in all cases: growth of human tumour cells (NCI), 48 h
BT-549 breast = tested on: BT-549 breast
CAKI-1 renal = tested on: CAKI-1 renal
LOX IMVI melanoma = tested on: LOX IMVI melanoma
M14 melanoma = tested on: M14 melanoma
MDA-MB-231 breast = tested on: MDA-MB-231 breast
MDA-MB-435 = tested on: MDA-MB-435
MOLT-4 leukemia = tested on: MOLT-4 leukemia
SF-295 CNS = tested on: SF-295 CNS
SW-620 colon = tested on: SW-620 colon
UO-31 renal = tested on: UO-31 renal

Structure (SMILES) | TGI (BT-549 breast) | TGI (CAKI-1 renal) | GI50 (LOX IMVI melanoma) | TGI (LOX IMVI melanoma) | GI50 (M14 melanoma) | TGI (M14 melanoma) | TGI (MDA-MB-231 breast) | TGI (MDA-MB-435) | GI50 (MOLT-4 leukemia) | TGI (MOLT-4 leukemia) | GI50 (SF-295 CNS) | TGI (SF-295 CNS) | TGI (SW-620 colon) | GI50 (UO-31 renal) | TGI (UO-31 renal) | GI50 (BT-549 breast) | GI50 (CAKI-1 renal) | GI50 (MDA-MB-231 breast) | GI50 (MDA-MB-435) | GI50 (SW-620 colon)
C=C(C)[C@@H]1CC=C(CO)CC1 | > 10 µM | > 10 µM | > 10 µM | > 10 µM and 923 µM | > 10 µM | > 10 µM and 1410 µM | > 10 µM | > 10 µM | > 10 µM | > 10 µM and 1050 µM | > 10 µM | > 10 µM and 941 µM | 1340 µM | > 10 µM | > 10 µM and 1050 µM | – | – | – | – | –
CSc1nnc(CCSc2ccnc3c(C(F)(F)F)cccc23)o1 | > 100 µM | > 100 µM | > 100 µM | > 100 µM | – | – | > 100 µM | > 100 µM | 27.7 µM | > 100 µM | 59.8 µM | > 100 µM | > 100 µM | 86.8 µM | > 100 µM | 31.4 µM | 31.8 µM | > 100 µM | > 100 µM | > 100 µM
CC1=C2CCCC2C/C(=N/Nc2ccc([N+](=O)[O-])cc2[N+](=O)[O-])CC1 (stereo unspecified) | – | > 100 µM | – | > 100 µM | – | > 100 µM | – | – | – | > 100 µM | – | > 100 µM | > 100 µM | – | > 100 µM | – | – | – | – | –
CC1(Sc2ccccc2)CN(Cc2ccccc2)C1=O (stereo unspecified) | – | – | – | > 100 µM | – | > 100 µM | – | – | – | > 100 µM | – | > 100 µM | > 100 µM | – | > 100 µM | – | – | – | – | –
CC(=O)/C(=C\c1ccco1)C(=O)Nc1ccccc1 | – | > 100 µM | – | > 100 µM | – | > 100 µM | – | – | – | > 100 µM | – | > 100 µM | > 100 µM | – | > 100 µM | – | – | – | – | –
NCC1(N2CCOCC2)C2CCCC21CO (stereo unspecified) | – | > 100 µM | – | – | – | > 100 µM | – | – | – | > 100 µM | – | > 100 µM | > 100 µM | – | > 100 µM | – | – | – | – | –
COC(=O)[C@@H]1CSC(=S)N1C(=O)C[C@H]1CC=CC[C@H]1CC(=O)Sc1ccccc1 | – | – | – | 33.1 µM | – | 32.4 µM | – | – | – | 16.7 µM | – | 45.3 µM | 33.9 µM | – | 26.8 µM | – | – | – | – | –
CC(=O)[O][Pb]([O]C(C)=O)([c]1ccccc1)[c]1ccccc1 | – | > 100 µM | 1.19 µM | 2.67 µM | > 48 µM | > 100 µM | – | – | 35 µM | > 100 µM | 46.6 µM | > 100 µM | > 100 µM | > 100 µM | > 100 µM | – | 13.7 µM | – | – | 5.42 µM
O=C(CCn1[nH]c(=O)c(Cl)c(Cl)c1=O)NOCCCc1ccccc1 | – | > 100 µM | – | > 100 µM | – | > 100 µM | – | – | – | > 100 µM | – | > 100 µM | > 100 µM | – | > 100 µM | – | – | – | – | –
O=C1C/C(=C/c2ccc(/C=C3/CC(=O)N(c4cccc(Br)c4)C3=O)cc2)C(=O)N1c1cccc(Br)c1 | – | > 100 µM | – | > 100 µM | – | > 100 µM | – | – | – | 98.6 µM | – | > 100 µM | > 100 µM | – | > 100 µM | – | – | – | – | –
Cc1ccc(C(=O)Nc2ccc(S(=O)(=O)O)c3cc(S(=O)(=O)O)cc(S(=O)(=O)O)c23)cc1NC(=O)c1cccc(N)c1 | > 100 µM | > 100 µM | – | – | – | > 100 µM | > 100 µM | – | – | > 100 µM | – | > 100 µM | > 100 µM | – | > 100 µM | – | – | – | – | –
CCC[CH2][Sn]([CH2]CCC)([O]C(C)=O)[O]C(C)=O | – | 2.23 µM | 0.916 µM | 2.4 µM | 1.74 µM | 4.26 µM | – | – | 0.505 µM | 4.59 µM | 1.85 µM | 3.79 µM | 2.65 µM | 1.72 µM | 3.13 µM | – | 0.638 µM | – | – | 0.694 µM
O=C(NCCCCCCNC(=O)c1cccc2ccccc12)c1cccc2ccccc12 | – | 66.3 µM | – | 44.3 µM | – | > 100 µM | – | – | – | > 100 µM | – | 3.4 µM | > 100 µM | – | 66.3 µM | – | – | – | – | –
CS(=O)(=O)CC1=Nc2nnc(CCCCCCCc3nnc4n3C(=O)C(CS(C)(=O)=O)=N4)n2C1=O | – | > 100 µM | – | > 100 µM | – | > 100 µM | – | – | – | > 100 µM | – | > 100 µM | > 100 µM | – | > 100 µM | – | – | – | – | –
c1ccc2nc(Cn3c[n+](Cc4ccc5ccccc5n4)c4ccccc43)ccc2c1 | 6.5 µM | – | 1.91 µM | 7.8 µM | 1.99 µM | 6.99 µM | 4.46 µM | 4.37 µM | 3.37 µM | 13 µM | 2.69 µM | 11.9 µM | 15.4 µM | 7.08 µM | 21.7 µM | 1.95 µM | – | 1.59 µM | 1.63 µM | 3.3 µM
CN(C)c1ccc2c(NCCCCCCNc3ccnc4cc(N(C)C)ccc34)ccnc2c1 | – | > 100 µM | – | – | – | > 100 µM | – | – | – | > 100 µM | – | 40.3 µM | > 100 µM | – | > 100 µM | – | – | – | – | –
CCCC(O)[C@@H](O)c1ccc2c(c1O)C(=O)c1c(OC)cccc1C2=O (stereo partly specified) | – | > 100 µM | – | 80.4 µM | – | 69.1 µM | – | – | – | 69.2 µM | – | > 100 µM | > 100 µM | – | 91.2 µM | – | – | – | – | –
COC(=O)C(CC(C)C)NC(=O)C(Cc1cnc[nH]1)NC(=O)CNC(=O)C(NC(=O)C(C)NC(=O)C(Cc1c[nH]c2ccccc12)NC(=O)C(CCC(=O)O)NC(=O)C(N)Cc1c(F)c(F)c(F)c(F)c1F)C(C)C (stereo unspecified) (H-[Phe(F5)]EWAVGHL-OMe; configuration not given here) | – | > 100 µM | – | > 12.5 µM | > 100 µM | > 100 µM | > 12.5 µM | > 12.5 µM | > 100 µM | > 100 µM | > 100 µM | > 100 µM | > 100 µM | 0.991 µM | > 12.5 µM and 56 µM | – | > 100 µM | – | – | > 100 µM
COc1cc2nc(Cl)nc(Nc3cccc(C(=O)/C=C/c4ccccc4)c3)c2cc1OC | 7.83 µM | 35.4 µM | – | – | 5.01 µM | > 100 µM | > 92.4 µM | 28.9 µM | 2.77 µM | > 100 µM | – | > 44.2 µM | > 100 µM | 17.8 µM | > 100 µM | 2.36 µM | 4.17 µM | 6.4 µM | 3.4 µM | 2.79 µM
CC12CCC(=O)C(O1)C1C(=O)c3cc4ccccc4cc3C(=O)C12 (stereo unspecified) | 58.6 µM | 25.6 µM | – | – | 21.5 µM | 53.3 µM | 35.6 µM | 34 µM | 10.4 µM | 74.1 µM | – | – | – | 42.5 µM | > 100 µM | 23.7 µM | 4.94 µM | 14.9 µM | 17.7 µM | –
